Assay results taken from patent US11649231B2, “Compound as mTOR inhibitor and use thereof” (MEDICINAL BIOCONVERGENCE RESEARCH CENTER, priority 2018, dated 2023).

Assays:
[1] = target: LRS and RagD (Homo sapiens (Human), UniProt Q9P2J5); assay: Inhibition of the interaction of LRS and RagD (immunoprecipitation) in SW620 cells; format: cell-based; settings: 10 uM for 1 hour, leucine restimulation, anti-LRS or anti-RagD precipitate
Protocol: Cells were lysed using a lysis buffer containing a protease inhibitor, and a primary antibody was added to the cell lysate for immunoprecipitation, followed by stirring at 4° C. for 2 hours and allowed to stand. A 50% protein agarose G-Sepharose slurry was added and left for an additional 4 hours. After washing three times with cold lysis buffer, the precipitate was dissolved in SDS sample buffer, separated by SDS-PAGE, and immunoblotted using anti-LRS or anti-RagD antibody.

[2] = tested on: autophagy; assay: In vivo autophagy (LC3 II or p62 degradation) in brain of C57BL/6 mice; set-up: species or system mouse; settings: 100 mg/kg intraperitoneal; 7-week-old C57BL/6 male mice
Protocol: (§1) The salt of the compound of the Example 1-1 was administered at a dose of 100 mg/kg (in 10% DMAC, 15% Tween 80, 75% 0.1M Na2HPO4, pH9.4), and rapamycin at a dose of 2 mg/kg (in 10% DMAC, 15% Tween 80, 75% saline).

[3] = tested on: mTORC1; assay: In vivo mTORC1 inhibition, S6K phosphorylation in brain neocortex and hippocampus of C57BL/6 mice; set-up: species or system mouse
Protocol: as §1
On the other hand, the present inventor attempted to evaluate the mTOR. inhibitory activity by salt concentration of the compound of Example 1-1 based on the above results.

[4] = tested on: RagD; assay: RagD GTP hydrolysis inhibitory activity (GTP-agarose bead pulldown assay) in SW620 cells; format: cell-based; settings: 10 μM for 1 hour, leucine restimulation 15 min
Protocol: GTP-agarose bead pulldown assay was performed to analyze RagD bound to GTP.
After washing the cells with cold PBS, cells were obtained in GTP-binding buffer (20 mM Tris-HCl, pH 7.5, 5 mM MgCl2, 2 mM PMSF, 20 μg/ml leupeptin, 10 μg/ml aprotinin, 150 mM NaCl, 1% Triton X-100, 1× phosphatase inhibitor cocktail). The cells were sonicated for 15 seconds to lyse, and the cell lysate was centrifuged at 4° C. for 10 minutes and at 13000×g to obtain a supernatant. The obtained protein solution (contained in 500 μl of GTP-binding buffer) was treated with 100 μl of GPT-agarose bead (Sigma Aldrich, Cat no. G9768) and left at 4° C. for 30 minutes. Thereafter, the beads were washed with GTP-binding buffer, and the supernatant was recovered. The washed beads in the recovered supernatant were once again treated for 30 minutes. The beads were washed again, and the recovered supernatant was left overnight at 4° C. After washing 5 times with GTP-binding buffer to separate contaminants that may have been included, the GTP-binding protein was analyzed by performing immunoblot analysis using anti-RagD or ARF1 antibody. ARF1 was used as a negative control.

[5] = target: T1, mTORC2 (Mus musculus (Mouse), UniProt Q9JLN9); assay: In vivo mTORC2 activity, AKT phosphorylation in brain of C57BL/6 mice; settings: 100 mg/kg intraperitoneal; 7-week-old C57BL/6 male mice
Protocol: as §1

[6] = tested on: mTORC1; assay: mTORC1 activation (p-S6K T389) in TSC2 CKO epilepsy animal model; format: in vivo, mouse; settings: TSC2 CKO mice; rapamycin 3 mg/kg or Example 1-1K 10 mg/kg i.p.; 4 weeks; vs control
Protocol: (§2) Animal care was performed according to an animal protocol approved by the Animal Experiment Committee of Seoul National University. TSC2^GFAP1 CKO mice were generated as follows. TSC2^flox/flox mice were first crossed with the same GFAP-Cre mouse line. The resulting TSC2^flox/+; TSC2^flox/flox by crossing GFAP-Cre mice with other TSC2^flox/flox mice; GFAP-Cre mice were generated.
For western blot analysis, mouse cerebral neocortex and hippocampus were dissected and sonicated in cell lysis buffer (Cell Signaling, Beverly, Mass., USA). After centrifugation at 15,000 rpm at 4° C. for 1 hour. a supernatant was obtained and the protein concentration was measured by the Bradford method (Pierce, Rockford, Ill., USA). An equal amount of total protein extract was separated by SDS-PAGE and transferred to a nitrocellulose membrane.

[7] = tested on: autophagy; assay: Autophagy markers (LC3 II increase or p62 cleavage) in TSC2 CKO epilepsy animal model; format: in vivo, mouse; settings: TSC2 CKO mice; rapamycin 3 mg/kg or Example 1-1K 10 mg/kg i.p.; 4 weeks
Protocol: as §2
(§3) For western blot analysis, mouse cerebral neocortex and hippocampus were dissected and sonicated in cell lysis buffer (Cell Signaling, Beverly, Mass., USA). After centrifugation at 15,000 rpm at 4° C. for 1 hour. a supernatant was obtained and the protein concentration was measured by the Bradford method (Pierce, Rockford, Ill., USA). An equal amount of total protein extract was separated by SDS-PAGE and transferred to a nitrocellulose membrane. After incubation with anti-p-S6K (T389) (Cell Signaling, #9205), anti-S6K (Cell Signaling, #9202), anti-Actin (Santa Cruz Biotechnology, #sc-1616), anti-p-AKT (S473) (Cell signaling, #4060), anti-AKT (Cell signaling, #2920) anti-p62/SQSTM1 (Cell signaling, #39749) and anti-LC3A (Cell signaling, #4108) antibodies in 1% TTBBS buffer (10 mM Tris, 10% Tris (Tris-HCl, pH 7.5, 150 mM NaCl, 0.05% Tween 20), the membrane was reacted with a peroxidase-conjugated secondary antibody. Signals were detected using an improved chemiluminescent reagent (Pierce, Rockford, Ill., USA).

[8] = tested on: mTORC1; assay: mTORC1 activity inhibitory effect at 20 μM, phospho-p70 S6 Kinase Western blot in SW620 cells; settings: leucine-free 1 h 30 min, then leucine 15 min, vs DMSO control
Protocol: In order to evaluate the inhibitory effect of the compounds according to the present invention on the activity of mTORC1, an experiment was performed in the following manner.

[9] = target: T1, mTORC2; assay: mTORC2 activation (p-AKT S473) in TSC2 CKO epilepsy animal model; format: in vivo; settings: TSC2 CKO mice; rapamycin 3 mg/kg or Example 1-1K 10 mg/kg i.p.; 4 weeks
Protocol: as §2, §3

[10] = tested on: B6C3H/APP/PS1 mice; assay: Amyloid plaque removal in Alzheimer's animal model, ThS staining; format: in vivo, mouse; settings: 5, 10 or 20 mg/kg intraperitoneal once daily for 7 days, vs vehicle
Source text: In the experiment, 7 months old male B6C3H/APP/PS1 mice were purchased from Jackson Lab (Bar Harbor, Me., USA) and used. These mouse are all dual transgenic mice expressing chimeric mouse/human amyloid precursor protein and mutant human presenilin 1, both of these are about CNS neurons. Both mutations are associated with early onset Alzheimer's.
The prepared salt (1-4K) of the compound of Example 1-1 was intraperitoneally administered at 0, 5, 10 or 20 mpk (mg/kg) per mouse, once daily for 7 days. As the solvent, 10% DMAC, 15% Tween 80, and 75% 0.1M Na2HPO4 buffer were used.
For immunohistochemical analysis, mice were anesthetized with 2% Avertin (20 μg g^−1, intraperitoneally), perfused with 0.9% saline, and perfused with ice-cold 4% paraformaldehyde. Excised brains of B6C3H/APP/PS1 mice were fixed in 4% paraformaldehyde (pH 7.4) for 16 hours. The fixed brain samples were immersed in 30% sucrose for cryoprotection and sliced to a thickness of 35 μm using a Cryostat (Microm HM 525, Thermo Scientific, Waltham, Mass., USA). To visualize Aβ plaques, sliced brain sections were stained with thioflavin S (ThS) for 7 minutes. […]
Images were taken with a Leica DM2500 fluorescence microscope. Plaque numbers were calculated from a single brain image of each mouse using the ImageJ software program.
Aβ deposition in the brain of APP/PS1 mice can be detected at 6 months of age. […]

Chain of LRS and RagD (Q9P2J5 whole entry): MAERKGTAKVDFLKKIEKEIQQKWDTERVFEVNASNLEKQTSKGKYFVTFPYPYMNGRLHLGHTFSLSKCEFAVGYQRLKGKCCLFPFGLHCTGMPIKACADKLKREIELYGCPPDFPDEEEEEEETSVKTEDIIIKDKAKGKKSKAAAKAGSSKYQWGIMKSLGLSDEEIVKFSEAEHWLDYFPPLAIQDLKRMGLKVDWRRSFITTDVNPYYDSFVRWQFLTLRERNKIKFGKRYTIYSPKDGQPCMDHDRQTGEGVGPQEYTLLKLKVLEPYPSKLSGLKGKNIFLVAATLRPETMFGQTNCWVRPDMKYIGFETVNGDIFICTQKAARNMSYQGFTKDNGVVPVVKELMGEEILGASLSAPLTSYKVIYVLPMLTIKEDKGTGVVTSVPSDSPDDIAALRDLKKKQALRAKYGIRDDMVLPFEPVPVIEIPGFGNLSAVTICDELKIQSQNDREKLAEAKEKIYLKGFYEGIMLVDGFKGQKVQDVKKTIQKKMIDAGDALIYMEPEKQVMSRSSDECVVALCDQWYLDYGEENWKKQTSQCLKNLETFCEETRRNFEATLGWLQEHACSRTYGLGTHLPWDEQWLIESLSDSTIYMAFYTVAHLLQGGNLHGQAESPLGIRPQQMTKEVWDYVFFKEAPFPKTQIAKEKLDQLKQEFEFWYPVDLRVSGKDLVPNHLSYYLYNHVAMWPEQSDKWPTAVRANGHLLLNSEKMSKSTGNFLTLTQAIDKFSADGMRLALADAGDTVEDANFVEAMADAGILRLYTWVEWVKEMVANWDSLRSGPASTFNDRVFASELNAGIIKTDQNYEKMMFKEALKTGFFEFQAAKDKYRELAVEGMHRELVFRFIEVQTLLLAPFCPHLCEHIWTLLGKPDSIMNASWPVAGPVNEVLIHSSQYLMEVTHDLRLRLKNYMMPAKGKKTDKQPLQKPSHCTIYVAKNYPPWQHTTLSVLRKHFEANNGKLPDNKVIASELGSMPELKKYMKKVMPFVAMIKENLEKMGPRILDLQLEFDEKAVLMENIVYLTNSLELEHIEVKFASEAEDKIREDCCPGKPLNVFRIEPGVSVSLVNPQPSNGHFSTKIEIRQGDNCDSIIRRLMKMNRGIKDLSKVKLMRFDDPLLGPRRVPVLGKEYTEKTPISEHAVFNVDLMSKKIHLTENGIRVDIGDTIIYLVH

Row | Compound | interaction between LRS and RagD [1] | GTP hydrolysis of RagD [4] | mTORC1 activation, p-S6K (T389) in cerebral cortex and hippocampus [6] | autophagy (LC3 II increase or p62 cleavage) [7] | mTORC1 inhibitory effect (%) [8] | mTORC2 activation, p-AKT (S473) [9] | further results
1 | O=C1[N-]C(=S)S/C1=C\c1cnn(-c2ccccc2)c1.[K+] [Example 1-1K, Potassium Salt of (5Z)-5-[(1-phenylpyrazole-4-yl)methylene]-2-thioxo-thiazolidin-4-one] | directly inhibited | inhibiting the GTP hydrolysis of RagD | reduced | induced | ≥ 85% | not affected | autophagy action (degradation of LC3 II or p62) [2]: increased; phosphorylation of S6K in the brain, by dose ([3]; 0, 1, 2.5, 5, 10, 20 and 50 mg/kg intraperitoneal, C57BL/6 male mice): inhibited the phosphorylation of S6K in the brain of the animal in a concentration-dependent manner; phosphorylated S6K in brain neocortex and hippocampus ([3]; 100 mg/kg intraperitoneal, 7-week-old C57BL/6 male mice): not detected; phosphorylation degree of AKT (mTORC2 activity) [5]: not changed; amyloid plaque deposits (ThS staining) in the brain [10]: significantly reduced
2 | O=C1NC(=S)S/C1=C\c1cnn(-c2ccccc2)c1 [Example 1-1, (5Z)-5-[(1-phenylpyrazol-4-yl)methylene]-2-thioxo-thiazolidin-4-one] | directly inhibited | inhibiting the GTP hydrolysis of RagD | – | – | – | – | –
3 | C=CCN1C(=O)/C(=C/c2cnn(-c3ccccc3)c2)SC1=S [Example 1-5, (5Z)-3-allyl-5-[(1-phenylpyrazol-4-yl)methylene]-2-thioxo-thiazolidin-4-one] | – | – | – | – | 45.82 ± 3.59% | – | –
4 | CO[C@H]1C[C@@H]2CC[C@@H](C)[C@@](O)(O2)C(=O)C(=O)N2CCCC[C@H]2C(=O)O[C@H]([C@H](C)C[C@@H]2CC[C@@H](O)[C@H](OC)C2)CC(=O)[C@H](C)/C=C(\C)[C@@H](O)[C@@H](OC)C(=O)[C@H](C)C[C@H](C)/C=C/C=C/C=C/1C [rapamycin, reference compound] | – | – | reduced | induced | – | not affected | –
5 | Cc1ccc(-n2cc(/C=C3\SC(=O)NC3=O)cn2)cc1 [Example 1-46, (5Z)-5-[[1-(p-tolyl)pyrazol-4-yl]methylene]thiazolidine-2,4-dione] | – | – | – | – | 74.39 ± 0.62% | – | –
